Assays:
SRMS = experiment: KINOMEscan; format: binding; conditions: 1000 nM
SRPK1 = experiment: KINOMEscan; format: binding; conditions: 1000 nM
[1] = system: JAK1(JH2domain-pseudokinase); experiment: KINOMEscan; format: binding; conditions: 1000 nM
CSNK1G2 = experiment: KINOMEscan; format: binding; conditions: 1000 nM
[2] = system: RSK4(Kin.Dom.1-N-terminal); experiment: KINOMEscan; format: binding; conditions: 1000 nM
BTK = molecular target: T1, BTK (Homo sapiens, UniProt Q06187); experiment: ADP-Glo biochemical kinase assay; conditions: purified BTK protein, read-out: IC50 against BTK
T1 construct: purchased Invitrogen (Carlsbad, CA, USA)
Protocol: ADP-Glo^TM assay kits from Promega Corporation were used according to instructions. CHMFL-BTK-85 was generally prepared with 1:3 serial dilutions for 4 concentrations (300 nM, 100 nM, 30 nM, and 10 nM). 8 concentrations were used (1 μM to 1 nM) for ATP competition experiments. 2.5 µL BTK (10 ng/µL) was incubated with CHMFL-BTK-85 and CHMFL-BTK-85R for 60 min at room temperature in reaction buffer followed by addition of 2.5 µL ATP/substrate mixture. The assay was conducted for 1 h at 37 °C. After the plate cooled for 5 min at room temperature, 5 μL of ADP-Glo reagent was added into each well to stop the reaction and consume the remaining […] within 40 min. At the end, 10 µL kinase detection reagent was added and incubated for 30 min at room temperature. The luminescence signal was read with an envision Perkin Elmer plate reader (Envision, PE, USA).
The biochemical tests of BMX, BLK, JAK3, TXK, HER2, HER4, ITK, EGFR, and BTK were provided by Invitrogen (Carlsbad, CA, USA).

AMPK-alpha2 = experiment: KINOMEscan; format: binding; conditions: 1000 nM
FLT3(D835H) = experiment: KINOMEscan; format: binding; conditions: 1000 nM
DYRK1B = experiment: KINOMEscan; format: binding; conditions: 1000 nM
[3] = system: RSK2(Kin.Dom.2-C-terminal); experiment: KINOMEscan; format: binding; conditions: 1000 nM
RIPK2 = experiment: KINOMEscan; format: binding; conditions: 1000 nM
PFTAIRE2 = experiment: KINOMEscan; format: binding; conditions: 1000 nM
HPK1 = experiment: KINOMEscan; format: binding; conditions: 1000 nM
PIKFYVE = experiment: KINOMEscan; format: binding; conditions: 1000 nM
BRSK1 = experiment: KINOMEscan; format: binding; conditions: 1000 nM
[4] = system: JAK1(JH1domain-catalytic); experiment: KINOMEscan; format: binding; conditions: 1000 nM
SGK = experiment: KINOMEscan; format: binding; conditions: 1000 nM
PIK3CA(Q546K) = experiment: KINOMEscan; format: binding; conditions: 1000 nM
PKN1 = experiment: KINOMEscan; format: binding; conditions: 1000 nM
LATS1 = experiment: KINOMEscan; format: binding; conditions: 1000 nM

T1 sequence (Q06187 whole entry): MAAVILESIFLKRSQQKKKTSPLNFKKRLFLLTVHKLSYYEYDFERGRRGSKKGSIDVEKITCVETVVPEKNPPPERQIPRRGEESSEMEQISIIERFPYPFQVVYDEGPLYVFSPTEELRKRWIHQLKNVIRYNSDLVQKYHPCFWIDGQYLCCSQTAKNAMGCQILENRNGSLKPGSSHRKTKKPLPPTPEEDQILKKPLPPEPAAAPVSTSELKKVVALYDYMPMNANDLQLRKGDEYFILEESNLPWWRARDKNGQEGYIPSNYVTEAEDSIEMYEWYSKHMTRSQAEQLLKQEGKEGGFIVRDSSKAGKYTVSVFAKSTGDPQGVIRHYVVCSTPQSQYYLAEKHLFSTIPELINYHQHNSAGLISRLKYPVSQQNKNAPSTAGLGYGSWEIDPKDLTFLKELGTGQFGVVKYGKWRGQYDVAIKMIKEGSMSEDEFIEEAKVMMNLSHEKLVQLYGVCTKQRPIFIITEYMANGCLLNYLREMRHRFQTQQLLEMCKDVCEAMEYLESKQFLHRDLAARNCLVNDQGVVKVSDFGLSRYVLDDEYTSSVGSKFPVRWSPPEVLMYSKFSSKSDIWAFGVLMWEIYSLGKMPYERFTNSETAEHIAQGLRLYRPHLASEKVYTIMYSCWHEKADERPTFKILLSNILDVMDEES

What does the source list for `C=CC(=O)Nc1cc(Nc2cc(-c3cccc(NC(=O)c4cc5c(s4)CCCC5)c3C)cn(C)c2=O)ccc1N1CCN(CC)CC1` [CHMFL-BTK-85]?
Percent Control (SRMS): 85%; Percent Control (SRPK1): 100%; Percent Control [1]: 96%; Percent Control (CSNK1G2): 98%; Percent Control [2]: 100%; IC50 (BTK): 11.5 nM; Percent Control (AMPK-alpha2): 89%; Percent Control (FLT3(D835H)): 100%; Percent Control (DYRK1B): 99%; Percent Control [3]: 99%; Percent Control (RIPK2): 94%; Percent Control (PFTAIRE2): 99%; Percent Control (HPK1): 85%; Percent Control (PIKFYVE): 78%; Percent Control (BRSK1): 100%; Percent Control [4]: 96%; Percent Control (SGK): 100%; Percent Control (PIK3CA(Q546K)): 100%; Percent Control (PKN1): 70%; Percent Control (LATS1): 100%

Reference: paper PMC7490411 (Signal Transduction and Targeted Therapy, 2020)
